Measured values from PubChem BioAssay (NCI).
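The compound was tested at five concentrations on cells cultured in 96-well plates, with a 48-hour exposure period. GI50 = concentration required for 50% inhibition of growth. TGI denotes the concentration required for complete inhibition of growth.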

Legend:
Experiment in all cases: NCI-60 cell line screen, 48 h
[1] = tested on: ACHN renal
[2] = tested on: EKVX NSCLC
[3] = tested on: HCC-2998 colon
[4] = tested on: HL-60(TB) leukemia
[5] = tested on: HOP-92 NSCLC
[6] = tested on: KM12 colon
[7] = tested on: SNB-19 CNS
[8] = tested on: SNB-75 CNS
[9] = tested on: SW-620 colon

| SMILES | TGI [1] [µM] | TGI [2] [µM] | TGI [3] [µM] | TGI [4] [µM] | TGI [5] [µM] | TGI [6] [µM] | TGI [7] [µM] | TGI [8] [µM] | TGI [9] [µM] | GI50 [1] [µM] | GI50 [2] [µM] | GI50 [3] [µM] | GI50 [4] [µM] | GI50 [6] [µM] | GI50 [7] [µM] | GI50 [8] [µM] | GI50 [9] [µM] |
| --- | --- | --- | --- | --- | --- | --- | --- | --- | --- | --- | --- | --- | --- | --- | --- | --- | --- |
| CCOC(=O)CC[C@H](NC(=O)c1nc[nH]c1[N+](=O)[O-])C(=O)OCC | > 100 | > 100 | > 100 | > 100 | > 100 | > 100 | > 100 | – | – | – | – | – | – | – | – | – | – |
| O=C1CCCCC1S(=O)(=O)c1ccccc1 (centres undefined) | > 100 | > 100 | > 100 | > 100 | > 100 | > 100 | > 100 | > 100 | > 100 | – | – | – | – | – | – | – | – |
| COc1cc2ccnc3c2c(c1OC)-c1coc(SC)c1-3 | > 100 | – | > 100 | > 100 | > 100 | > 100 | > 100 | 79.3 | > 100 | – | – | – | – | – | – | – | – |
| NC(=O)CN(CC(N)=O)C(N)=O | > 100 | > 100 | – | > 100 | > 100 | > 100 | > 100 | > 100 | > 100 | – | – | – | – | – | – | – | – |
| N/N=C(/C(=O)Nc1cccc(Cl)c1)C(C(=O)c1ccc(O)cc1O)C1OC(=O)c2ccccc21 (centres undefined) | > 100 | > 100 | > 100 | > 100 | – | > 100 | > 100 | – | > 100 | – | – | – | – | – | – | – | – |
| CCOC(=O)/C(C1=NCCN1)=C(\O)c1ccccc1 | > 100 | > 100 | > 100 | > 100 | – | > 100 | > 100 | – | > 100 | – | – | – | – | – | – | – | – |
| COc1ccc(/C=C/c2cc(OC)c(OC)c(OC)c2)cc1 | > 100 | > 100 | 15.7 | – | > 100 | > 100 | > 100 | > 21.7 | > 100 | – | – | – | – | – | – | – | – |
| CSc1nnc(CCC(=O)Nc2c(C)cccc2C)o1 | – | > 100 | > 100 | > 100 | > 100 | > 100 | > 100 | > 100 | > 100 | – | – | – | – | – | – | – | – |
| CC(CN(C)C)/C(=N\Nc1ccccc1)c1ccccc1 (centres undefined) | 2.08 | 35.6 | – | 8.34 | – | 14.4 | 34.4 | 66.8 | > 100 | – | – | – | – | – | – | – | – |
| O=C(O)CC[C@H](NC(=O)c1ccc(-n2nc3ccc(O)cc3nc2=O)cc1)C(=O)O | > 100 | > 100 | > 100 | > 100 | > 100 | > 100 | > 100 | – | > 100 | – | – | – | – | – | – | – | – |
| CC(=O)Nc1ccc(S(=O)(=O)N/N=C/CN2C(=O)c3ccccc3C2=O)cc1 | > 100 | > 100 | > 100 | > 100 | – | > 100 | > 100 | > 100 | > 100 | – | – | – | – | – | – | – | – |
| C=C/C=C/NC(=O)OCc1ccccc1 | > 100 | > 100 | – | > 100 | > 100 | > 100 | > 100 | > 100 | > 100 | – | – | – | – | – | – | – | – |
| COc1cc2c[n+](C)c3c4cc(OC)c(OC(C)C)cc4ccc3c2cc1OC | > 100 | > 100 | > 100 | 91.9 | > 100 | > 100 | > 100 | > 100 | > 100 | – | – | – | – | – | – | – | – |
| COc1ccc2c(c1)C(=O)c1ccc(OC)cc1C2=S | > 100 | > 100 | > 100 | > 100 | > 100 | > 100 | > 100 | 87.4 | > 100 | – | – | – | – | – | – | – | – |
| Cc1nc(Nc2ccccc2)sc1C(=O)CC(=O)C(=O)Nc1c(C(C)C)cccc1C(C)C | > 100 | 89.5 | > 100 | > 100 | > 100 | > 100 | > 100 | – | > 100 | – | – | – | – | – | – | – | – |
| O=[N+]([O-])c1ccc(-n2nnc(C3=NCCN3)c2-c2ccccc2)cc1 | > 100 | > 100 | > 100 | > 100 | > 100 | > 100 | > 100 | > 100 | > 100 | – | – | – | – | – | – | – | – |
| C=Cc1cncc(C#N)c1CCc1c(C#N)cncc1C=C | > 100 | > 100 | > 100 | > 100 | > 10 | > 100 | > 100 | > 100 | > 100 | > 100 | > 10 | > 100 | > 100 | > 100 | > 100 | > 100 | > 100 |
| O=C1C=CC(=O)C2=C1[C@@H](O)C1CC=CC3C(=O)O[C@@H]2C31 (some centres undefined) | > 69.9 | > 100 | 34.6 | 40.4 | 45.4 | 41.2 | > 100 | 50.7 | 57 | – | – | – | – | – | – | – | – |
